This note sets out measurements from ChEMBL document CHEMBL1201862, “PubChem BioAssay data set” (2004).

Holding throughout (experiment): NCI tumour cell line growth inhibition, 48 h
The test system of assay [1] is 786-0.
Assay [2] relates to A498.
For assay [3], the system named is ACHN.
In assay [4] the test system is HCC 2998.
Assay [5] has as its system HCT-116.
Assay [6] relates to HOP-62.
For assay [7], the system named is KM12.
Assay [8] concerns M14.
The test system of assay [9] is Malme-3M.
The test system of assay [10] is NCI-H226.
Assay [11] concerns OVCAR-3.
Assay [12] relates to OVCAR-8.
Assay [13] relates to RPMI-8226.
The subject of assay [14] is SF-295.
Assay [15] has as its system SK-MEL-28.
Assay [16] relates to SK-MEL-5.
Assay [17] relates to SK-OV-3.
Assay [18] has as its system SW-620.
The subject of assay [19] is RXF 393.

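In this assay, cells in 96-well plates receive the compound at five concentrations for 48 hours. Endpoints are linearly interpolated between the surrounding concentrations. GI50 = concentration required for 50% inhibition of growth.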 Active and inactive are the calls of the source. Rule as the data show it: active = GI50 up to about 1.1 µM and inactive = higher.

Take `COc1ccc(/C=C2\C(=O)N(NC(C)=O)c3ccccc32)cc1`: the GI50 was > 100 µM (inactive) in assay [1]; > 100 µM (inactive) in assay [2]; > 100 µM (inactive) in [3]; 71.6 µM (inactive) in assay [4]; 63.4 µM (inactive) in assay [5]; 97.3 µM (inactive) in assay [6]. Moreover, the GI50 in assay [7] is 87.9 µM (inactive); in assay [8], > 100 µM (inactive); in [9], > 100 µM (inactive); in assay [10] it was > 100 µM (inactive); in [11] it was 56.4 µM (inactive); in assay [12], 48.1 µM (inactive). The GI50 in assay [13] was 37.4 µM (inactive); in assay [14] it was > 100 µM (inactive); in assay [15], > 100 µM (inactive); in [16] it was 46.2 µM (inactive); in assay [17], > 100 µM (inactive); in assay [18], 95.9 µM (inactive).

`COc1cc([C@@H]2c3cc4c(cc3C(N)C3COC(=O)[C@@H]32)OCO4)cc(OC)c1O` (stereo partly drawn): the GI50 in [1] was 0.537 µM (active); in assay [3], 0.146 µM (active); in assay [4], 0.249 µM (active); in assay [5], 0.33 µM (active); in assay [6], 2.88 µM (inactive); in assay [8], 0.269 µM (active). The GI50 is 0.292 µM (active) in assay [10]; 0.308 µM (active) in assay [12]; 0.277 µM (active) in [13]; 0.049 µM (active) in assay [19]; 0.0624 µM (active) in [14]; 0.244 µM (active) in assay [16]. In addition, the GI50 in assay [18] was 0.301 µM (active).

On to `CC(C)(C)C1=C(Br)C(C(C)(C)C)OP1(=O)O` (stereo not drawn), for which the GI50 in assay [1], in assay [2], in assay [3], in assay [4], in assay [5] and in assay [6] was > 100 µM (inactive) in each case. In addition, the GI50 in [7], in assay [8], in assay [9], in [10], in assay [11] and in [12] was > 100 µM (inactive) throughout. The GI50 in assay [14], in assay [15], in assay [16] and in assay [17] was > 100 µM (inactive) in each case.

As for `O=c1ccn([C@@H]2C[C@H](CO)C[S+]([O-])C2)c(=O)[nH]1` (stereo partly drawn), the GI50 in assay [1], in assay [2], in [3], in [4], in assay [5] and in assay [6] was > 100 µM (inactive) each time. Moreover, the GI50 in [7], in assay [8], in assay [9], in assay [10], in assay [11] and in assay [12] was > 100 µM (inactive) throughout. Also, the GI50 in assay [13], in [14], in assay [15], in assay [16], in assay [17] and in assay [18] was > 100 µM (inactive) in each case.

For `C=C[C@@]1(O)CCCC2=C(C(=O)OCC)CC[C@]21C`, the GI50 is > 100 µM (inactive) in [1]; > 100 µM (inactive) in assay [3]; > 100 µM (inactive) in assay [4]; > 100 µM (inactive) in assay [7]; 78.7 µM (inactive) in [8]; > 100 µM (inactive) in [9]. Also, the GI50 in [10], in assay [11], in assay [12], in assay [13], in assay [19] and in assay [14] was > 100 µM (inactive) throughout. The GI50 in [15] is > 100 µM (inactive); in [16] it was 38.1 µM (inactive); in assay [17], > 100 µM (inactive); in assay [18], 54.7 µM (inactive).

For the compound `C[C@]1(CO)CCC[C@@]2(C)C1CC[C@H]1CC3C[C@]12CC[C@]3(C)O` (stereo partly drawn), the GI50 in assay [1] was > 100 µM (inactive); in assay [3] it was 74.6 µM (inactive); in assay [4], 58.9 µM (inactive); in [5] it was 49.8 µM (inactive); in assay [6], 39.8 µM (inactive); in assay [7], > 100 µM (inactive). The GI50 was > 100 µM (inactive) in assay [8]; > 100 µM (inactive) in [9]; > 100 µM (inactive) in [10]; > 100 µM (inactive) in assay [11]; > 100 µM (inactive) in [12]; 17.3 µM (inactive) in [13]. For the same compound, the GI50 was 46.7 µM (inactive) in assay [19]; > 100 µM (inactive) in [14]; > 100 µM (inactive) in [15]; 17.9 µM (inactive) in assay [16]; > 100 µM (inactive) in assay [17]; > 100 µM (inactive) in [18].

Turning to `CC1CCN(CCC(=O)CC(c2ccccc2)c2c(O)c3ccccc3oc2=O)CC1` (stereo not drawn), the GI50 in assay [1], in assay [2], in assay [3], in assay [5], in [6] and in assay [7] was > 100 µM (inactive) in each case. The GI50 in assay [8] was > 100 µM (inactive); in [10], 80 µM (inactive); in assay [11], > 100 µM (inactive); in assay [12], > 100 µM (inactive); in assay [13], > 100 µM (inactive); in assay [19], > 100 µM (inactive). The GI50 in [14], in assay [15], in assay [16], in assay [17] and in assay [18] was > 100 µM (inactive) in each case.

As for `CN1N=C2NCCNC3=NN(C)/C(=N/CC/N=C/1S2)S3`, the GI50 in assay [1], in assay [2], in [3], in assay [5], in [6] and in assay [7] was > 100 µM (inactive) throughout. The GI50 in [8], in [10], in [12], in assay [13], in assay [19] and in assay [14] was > 100 µM (inactive) throughout. The GI50 in assay [15], in assay [16] and in assay [18] was > 100 µM (inactive) each time.

Take `CCOC(=O)Oc1c(OC)cc(C(=O)NC2CCc3cc(OC)c(OC)c(OC)c3-c3ccc(SC)c(=O)cc32)cc1OC` (stereo not drawn): the GI50 in assay [1] is 0.239 µM (active); in assay [2] it was 0.223 µM (active); in [3] it was 0.537 µM (active); in assay [4], 0.0473 µM (active); in assay [5], 0.0566 µM (active); in assay [6], 0.601 µM (active). In addition, the GI50 was 0.0378 µM (active) in assay [7]; 0.138 µM (active) in [8]; 0.204 µM (active) in assay [9]; 0.0471 µM (active) in [10]; 0.0322 µM (active) in assay [11]; 0.092 µM (active) in [12]. Also, the GI50 in [14] was 0.145 µM (active); in [15], 20.7 µM (inactive); in assay [16] it was 0.0456 µM (active); in [17], 0.0513 µM (active); in [18], 0.0419 µM (active).
